# Assay results from BindingDB's records for doi:10.1021/jm00006a025 (Chungnam National University, 1995).
# pIC50: −log10 of the molar value.
# Biological target: T1, DNA topoisomerase 1 (Homo sapiens, UniProt P11387)
# T1 sequence (P11387 whole entry): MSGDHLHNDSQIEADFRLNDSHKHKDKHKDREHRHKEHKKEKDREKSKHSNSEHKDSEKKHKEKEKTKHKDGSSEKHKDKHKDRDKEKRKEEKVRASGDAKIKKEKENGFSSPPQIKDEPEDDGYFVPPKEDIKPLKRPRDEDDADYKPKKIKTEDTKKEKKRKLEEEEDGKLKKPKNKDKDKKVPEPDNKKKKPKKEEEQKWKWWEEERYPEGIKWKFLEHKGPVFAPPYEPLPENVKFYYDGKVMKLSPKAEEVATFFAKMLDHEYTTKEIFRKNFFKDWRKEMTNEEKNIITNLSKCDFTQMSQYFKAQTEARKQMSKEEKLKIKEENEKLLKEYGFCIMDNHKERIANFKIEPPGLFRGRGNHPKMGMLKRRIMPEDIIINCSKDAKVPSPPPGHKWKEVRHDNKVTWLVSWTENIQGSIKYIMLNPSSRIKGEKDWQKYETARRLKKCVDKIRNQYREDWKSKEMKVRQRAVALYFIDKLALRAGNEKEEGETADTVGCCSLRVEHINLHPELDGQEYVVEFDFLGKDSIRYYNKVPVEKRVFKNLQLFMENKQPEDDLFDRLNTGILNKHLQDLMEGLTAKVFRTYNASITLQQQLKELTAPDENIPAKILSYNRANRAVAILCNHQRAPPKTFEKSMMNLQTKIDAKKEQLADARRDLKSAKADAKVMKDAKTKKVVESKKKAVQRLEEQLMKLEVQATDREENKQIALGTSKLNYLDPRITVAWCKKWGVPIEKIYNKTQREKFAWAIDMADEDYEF
# Assay: Inhibitory activity against DNA topoisomerase-1 obtained from Hela cells
row,SMILES,pIC50
1,CC(C)=CC=C(OC(=O)C(c1ccccc1)c1ccccc1)c1cc(O)c2c(O)ccc(O)c2c1O,< 3.20
2,"CC(C)=CC=C(OC(=O)C=C(C)C=CC=C(C)/C=C/C1=C(C)CCCC1(C)C)c1cc(O)c2c(O)ccc(O)c2c1O [(2Z,4E,6E,8E)-3,7-Dimethyl-9-(2,6,6-trimethyl-cyclohex-1-enyl)-nona-2,4,6,8-tetraenoic acid (R)-1-(5,8-dihydroxy-1,4-dioxo-1,4-dihydro-naphthalen-2-yl)-4-methyl-pent-3-enyl ester]",< 3.20
3,"CCCCC/C=C/C/C=C/C/C=C/CCCCC(=O)OC(=CC=C(C)C)c1cc(O)c2c(O)ccc(O)c2c1O [(6E,9E,12E)-Octadeca-6,9,12-trienoic acid (R)-1-(5,8-dihydroxy-1,4-dioxo-1,4-dihydro-naphthalen-2-yl)-4-methyl-pent-3-enyl ester]",< 3.20
4,"CCCCC/C=C/C/C=C/CCCCCCCC(=O)OC(=CC=C(C)C)c1cc(O)c2c(O)ccc(O)c2c1O [(9E,12E)-Octadeca-9,12-dienoic acid (R)-1-(5,8-dihydroxy-1,4-dioxo-1,4-dihydro-naphthalen-2-yl)-4-methyl-pent-3-enyl ester]",< 3.20
5,"CCC/C=C/C(=O)OC(=CC=C(C)C)c1cc(O)c2c(O)ccc(O)c2c1O [(E)-Hex-2-enoic acid (R)-1-(5,8-dihydroxy-1,4-dioxo-1,4-dihydro-naphthalen-2-yl)-4-methyl-pent-3-enyl ester]",3.82
6,"CC/C=C/CC(=O)OC(=CC=C(C)C)c1cc(O)c2c(O)ccc(O)c2c1O [(E)-Hex-3-enoic acid (R)-1-(5,8-dihydroxy-1,4-dioxo-1,4-dihydro-naphthalen-2-yl)-4-methyl-pent-3-enyl ester]",3.82
7,"CCCCCCCC/C=C/CCCCCCCC(=O)OC(=CC=C(C)C)c1cc(O)c2c(O)ccc(O)c2c1O [(E)-Octadec-9-enoic acid (R)-1-(5,8-dihydroxy-1,4-dioxo-1,4-dihydro-naphthalen-2-yl)-4-methyl-pent-3-enyl ester]",< 3.20
8,"CC(C)=CC=C(OC(=O)c1ccccc1)c1cc(O)c2c(O)ccc(O)c2c1O [(R)-1-(5,8-dihydroxy-1,4-dioxo-1,4-dihydronaphthalen-2-yl)-4-methylpent-3-enyl benzoate]",3.82
9,"CCCCCCCCCC(=O)OC(=CC=C(C)C)c1cc(O)c2c(O)ccc(O)c2c1O [Decanoic acid (R)-1-(5,8-dihydroxy-1,4-dioxo-1,4-dihydro-naphthalen-2-yl)-4-methyl-pent-3-enyl ester]",< 3.20
10,"CCCCCCCCCCCC(=O)OC(=CC=C(C)C)c1cc(O)c2c(O)ccc(O)c2c1O [Dodecanoic acid (R)-1-(5,8-dihydroxy-1,4-dioxo-1,4-dihydro-naphthalen-2-yl)-4-methyl-pent-3-enyl ester]",< 3.20
11,"CCCCCCCCCCCCCCCC(=O)OC(=CC=C(C)C)c1cc(O)c2c(O)ccc(O)c2c1O [Hexadecanoic acid (R)-1-(5,8-dihydroxy-1,4-dioxo-1,4-dihydro-naphthalen-2-yl)-4-methyl-pent-3-enyl ester]",< 3.20
12,"CCCCCCCCC(=O)OC(=CC=C(C)C)c1cc(O)c2c(O)ccc(O)c2c1O [Nonanoic acid (R)-1-(5,8-dihydroxy-1,4-dioxo-1,4-dihydro-naphthalen-2-yl)-4-methyl-pent-3-enyl ester]",< 3.20
13,"CCCCCCCCCCCCCCCCCC(=O)OC(=CC=C(C)C)c1cc(O)c2c(O)ccc(O)c2c1O [Octadecanoic acid (R)-1-(5,8-dihydroxy-1,4-dioxo-1,4-dihydro-naphthalen-2-yl)-4-methyl-pent-3-enyl ester]",< 3.20
14,"CCCCCCCC(=O)OC(=CC=C(C)C)c1cc(O)c2c(O)ccc(O)c2c1O [Octanoic acid (R)-1-(5,8-dihydroxy-1,4-dioxo-1,4-dihydro-naphthalen-2-yl)-4-methyl-pent-3-enyl ester]",< 3.20
